What was measured:
Format in all cases: in vivo
barnyard grass [1] = assay: Test Example 1: weedkilling efficacy, preemergent weed treatment in the submerged state; A: barnyard grass; settings: treatment dosage 252 g/ha
Summary of the method: (§1)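 Pots of alluvial soil flooded 4 cm deep, sown with barnyard grass, bulrush and oval-leafed pondweed and transplanted with 2.5-leaf rice. Emulsified compound applied to the water surface on sowing day at stated g/ha; greenhouse 25–30 °C, effects assessed 3 weeks after treatment.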

transplanted rice = assay: Test Example 1: preemergent weed treatment in the submerged state, effect on crop; a: transplanted rice; settings: treatment dosage 252 g/ha
Summary of the method: as §1

Italian ryegrass [2] = assay: Test Example 4: weedkilling efficacy by foliar treatment; I: Italian ryegrass; settings: treatment dosage 315 g/ha
Summary of the method: (§2)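 Seeds are spot-sown into sterilized diluvial soil and covered with about 1.5 cm of soil. After 14 days' greenhouse growth at 25 to 30° C, plants are sprayed on stems and leaves with diluted emulsion at the stated g/ha rate, then scored at 3 weeks.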

oval-leafed pondweed [3] = assay: Test Example 1: weedkilling efficacy, preemergent weed treatment in the submerged state; C: oval-leafed pondweed; settings: treatment dosage 252 g/ha
Summary of the method: as §1

chickweed [4] = assay: Test Example 3: weedkilling efficacy through soil treatment; N: chickweed; settings: treatment dosage 315 g/ha
Summary of the method: (§3)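 Crop and weed responses were judged three weeks after a uniform surface spray of the water-diluted emulsion at the given g/ha rate. Seeds sat beneath about 1.5 cm of sterilized diluvial soil, and boxes stood in a greenhouse at 25 to 30° C.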

directly sown rice [5] = assay: Test Example 4: foliar treatment, effect on crop; b: directly sown rice; settings: treatment dosage 315 g/ha
Summary of the method: as §2

bulrush [6] = assay: Test Example 1: weedkilling efficacy, preemergent weed treatment in the submerged state; B: bulrush; settings: treatment dosage 252 g/ha
Summary of the method: as §1

bulrush [7] = assay: Test Example 2: weedkilling efficacy, growth period weed treatment in the submerged state; B: bulrush; settings: treatment dosage 252 g/ha
Summary of the method: (§4)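 Barnyard grass, bulrush and oval-leafed pondweed sown in alluvial soil under 4 cm flooding, greenhouse 25 to 30° C. At 1-2 leaf stage, water-diluted emulsion applied to the water surface at stated g/ha dosages; effects scored 3 weeks later.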

wheat [8] = assay: Test Example 3: soil treatment, effect on crop; e: wheat; settings: treatment dosage 315 g/ha
Summary of the method: as §3

catchweed [9] = assay: Test Example 4: weedkilling efficacy by foliar treatment; O: catchweed; settings: treatment dosage 315 g/ha
Summary of the method: as §2

chickweed [10] = assay: Test Example 4: weedkilling efficacy by foliar treatment; N: chickweed; settings: treatment dosage 315 g/ha
Summary of the method: as §2

Italian ryegrass [11] = assay: Test Example 3: weedkilling efficacy through soil treatment; I: Italian ryegrass; settings: treatment dosage 315 g/ha
Summary of the method: as §3

crabgrass [12] = assay: Test Example 4: weedkilling efficacy by foliar treatment; D: crabgrass; settings: treatment dosage 315 g/ha
Summary of the method: as §2

Indian mallow [13] = assay: Test Example 3: weedkilling efficacy through soil treatment; K: Indian mallow; settings: treatment dosage 315 g/ha
Summary of the method: as §3

birds-eye speedwell [14] = assay: Test Example 3: weedkilling efficacy through soil treatment; p: birds-eye speedwell; settings: treatment dosage 315 g/ha
Summary of the method: as §3

green foxtail [15] = assay: Test Example 4: weedkilling efficacy by foliar treatment; E: green foxtail; settings: treatment dosage 315 g/ha
Summary of the method: as §2

beet [16] = assay: Test Example 3: soil treatment, effect on crop; f: beet; settings: treatment dosage 315 g/ha
Summary of the method: as §3

wheat [17] = assay: Test Example 4: foliar treatment, effect on crop; e: wheat; settings: treatment dosage 315 g/ha
Summary of the method: as §2

black-grass [18] = assay: Test Example 4: weedkilling efficacy by foliar treatment; H: black-grass; settings: treatment dosage 315 g/ha
Summary of the method: as §2

fig-leafed goosefoot [19] = assay: Test Example 4: weedkilling efficacy by foliar treatment; M: fig-leafed goosefoot; settings: treatment dosage 315 g/ha
Summary of the method: as §2

fig-leafed goosefoot [20] = assay: Test Example 3: weedkilling efficacy through soil treatment; M: fig-leafed goosefoot; settings: treatment dosage 315 g/ha
Summary of the method: as §3

Indian mallow [21] = assay: Test Example 4: weedkilling efficacy by foliar treatment; K: Indian mallow; settings: treatment dosage 315 g/ha
Summary of the method: as §2

soybean [22] = assay: Test Example 3: soil treatment, effect on crop; d: soybean; settings: treatment dosage 315 g/ha
Summary of the method: as §3

wild oat [23] = assay: Test Example 4: weedkilling efficacy by foliar treatment; G: wild oat; settings: treatment dosage 315 g/ha
Summary of the method: as §2

corn [24] = assay: Test Example 4: foliar treatment, effect on crop; c: corn; settings: treatment dosage 315 g/ha
Summary of the method: as §2

corn [25] = assay: Test Example 3: soil treatment, effect on crop; c: corn; settings: treatment dosage 315 g/ha
Summary of the method: as §3

black-grass [26] = assay: Test Example 3: weedkilling efficacy through soil treatment; H: black-grass; settings: treatment dosage 315 g/ha
Summary of the method: as §3

beet [27] = assay: Test Example 4: foliar treatment, effect on crop; f: beet; settings: treatment dosage 315 g/ha
Summary of the method: as §2

green foxtail [28] = assay: Test Example 3: weedkilling efficacy through soil treatment; E: green foxtail; settings: treatment dosage 315 g/ha
Summary of the method: as §3

crabgrass [29] = assay: Test Example 3: weedkilling efficacy through soil treatment; D: crabgrass; settings: treatment dosage 315 g/ha
Summary of the method: as §3

redroot pigweed [30] = assay: Test Example 3: weedkilling efficacy through soil treatment; L: redroot pigweed; settings: treatment dosage 315 g/ha
Summary of the method: as §3

soybean [31] = assay: Test Example 4: foliar treatment, effect on crop; d: soybean; settings: treatment dosage 315 g/ha
Summary of the method: as §2

oval-leafed pondweed [32] = assay: Test Example 2: weedkilling efficacy, growth period weed treatment in the submerged state; C: oval-leafed pondweed; settings: treatment dosage 252 g/ha
Summary of the method: as §4

redroot pigweed [33] = assay: Test Example 4: weedkilling efficacy by foliar treatment; L: redroot pigweed; settings: treatment dosage 315 g/ha
Summary of the method: as §2

catchweed [34] = assay: Test Example 3: weedkilling efficacy through soil treatment; O: catchweed; settings: treatment dosage 315 g/ha
Summary of the method: as §3

barnyard grass [35] = assay: Test Example 2: weedkilling efficacy, growth period weed treatment in the submerged state; A: barnyard grass; settings: treatment dosage 252 g/ha
Summary of the method: as §4

birds-eye speedwell [36] = assay: Test Example 4: weedkilling efficacy by foliar treatment; p: birds-eye speedwell; settings: treatment dosage 315 g/ha
Summary of the method: as §2

directly sown rice [37] = assay: Test Example 3: soil treatment, effect on crop; b: directly sown rice; settings: treatment dosage 315 g/ha
Summary of the method: as §3

wild oat [38] = assay: Test Example 3: weedkilling efficacy through soil treatment; G: wild oat; settings: treatment dosage 315 g/ha
Summary of the method: as §3

## CC1=C(c2ccccc2)C(=O)N(C(C)(C)C(=O)Nc2cncc(C(F)(F)F)c2)CO1 [B-3-03]
Barnyard grass [1]
  A (barnyard grass) weedkilling efficacy grade: 5 (weed kill ratio 90% or more, (practically complete withering))
Transplanted rice
  a (transplanted rice) effect on crop grade: 0 (weed kill ratio 5% or less (practically no effect))
Italian ryegrass [2]
  I (Italian ryegrass) weedkilling efficacy grade: 5 (weed kill ratio 90% or more, (practically complete withering))
oval-leafed pondweed [3]
  C (oval-leafed pondweed) weedkilling efficacy grade: 5 (weed kill ratio 90% or more, (practically complete withering))
Chickweed [4]
  N (chickweed) weedkilling efficacy grade: 0 (weed kill ratio 5% or less (practically no effect))
Directly sown rice [5]
  b (directly sown rice) effect on crop grade: 5 (weed kill ratio 90% or more, (practically complete withering))
Bulrush [6]
  B (bulrush) weedkilling efficacy grade: 5 (weed kill ratio 90% or more, (practically complete withering))
Bulrush [7]
  B (bulrush) weedkilling efficacy grade: 5 (weed kill ratio 90% or more, (practically complete withering))
Wheat [8]
  e (wheat) effect on crop grade: 0 (weed kill ratio 5% or less (practically no effect))
Catchweed [9]
  O (catchweed) weedkilling efficacy grade: 0 (weed kill ratio 5% or less (practically no effect))
Chickweed [10]
  N (chickweed) weedkilling efficacy grade: 2 (weed kill ratio 20% or more, less than 40%)
Italian ryegrass [11]
  I (Italian ryegrass) weedkilling efficacy grade: 5 (weed kill ratio 90% or more, (practically complete withering))
Crabgrass [12]
  D (crabgrass) weedkilling efficacy grade: 5 (weed kill ratio 90% or more, (practically complete withering))
Indian mallow [13]
  K (Indian mallow) weedkilling efficacy grade: 0 (weed kill ratio 5% or less (practically no effect))
birds-eye speedwell [14]
  P (birds-eye speedwell) weedkilling efficacy grade: 3 (weed kill ratio 40% or more, less than 70%)
Green foxtail [15]
  E (green foxtail) weedkilling efficacy grade: 5 (weed kill ratio 90% or more, (practically complete withering))
Beet [16]
  f (beet) effect on crop grade: 2 (weed kill ratio 20% or more, less than 40%)
Wheat [17]
  e (wheat) effect on crop grade: 0 (weed kill ratio 5% or less (practically no effect))
black-grass [18]
  H (black-grass) weedkilling efficacy grade: 5 (weed kill ratio 90% or more, (practically complete withering))
fig-leafed goosefoot [19]
  M (fig-leafed goosefoot) weedkilling efficacy grade: 2 (weed kill ratio 20% or more, less than 40%)
fig-leafed goosefoot [20]
  M (fig-leafed goosefoot) weedkilling efficacy grade: 1 (weed kill ratio 5% or more, less than 20%)
Indian mallow [21]
  K (Indian mallow) weedkilling efficacy grade: 2 (weed kill ratio 20% or more, less than 40%)
Soybean [22]
  d (soybean) effect on crop grade: 0 (weed kill ratio 5% or less (practically no effect))
Wild oat [23]
  G (wild oat) weedkilling efficacy grade: 4 (weed kill ratio 70% or more, less than 90%)
Corn [24]
  c (corn) effect on crop grade: 4 (weed kill ratio 70% or more, less than 90%)
Corn [25]
  c (corn) effect on crop grade: 4 (weed kill ratio 70% or more, less than 90%)
black-grass [26]
  H (black-grass) weedkilling efficacy grade: 5 (weed kill ratio 90% or more, (practically complete withering))
Beet [27]
  f (beet) effect on crop grade: 0 (weed kill ratio 5% or less (practically no effect))
Green foxtail [28]
  E (green foxtail) weedkilling efficacy grade: 5 (weed kill ratio 90% or more, (practically complete withering))
Crabgrass [29]
  D (crabgrass) weedkilling efficacy grade: 5 (weed kill ratio 90% or more, (practically complete withering))
Redroot pigweed [30]
  L (redroot pigweed) weedkilling efficacy grade: 0 (weed kill ratio 5% or less (practically no effect))
Soybean [31]
  d (soybean) effect on crop grade: 3 (weed kill ratio 40% or more, less than 70%)
oval-leafed pondweed [32]
  C (oval-leafed pondweed) weedkilling efficacy grade: 5 (weed kill ratio 90% or more, (practically complete withering))
Redroot pigweed [33]
  L (redroot pigweed) weedkilling efficacy grade: 2 (weed kill ratio 20% or more, less than 40%)
Catchweed [34]
  O (catchweed) weedkilling efficacy grade: 0 (weed kill ratio 5% or less (practically no effect))
Barnyard grass [35]
  A (barnyard grass) weedkilling efficacy grade: 5 (weed kill ratio 90% or more, (practically complete withering))
birds-eye speedwell [36]
  P (birds-eye speedwell) weedkilling efficacy grade: 1 (weed kill ratio 5% or more, less than 20%)
Directly sown rice [37]
  b (directly sown rice) effect on crop grade: 4 (weed kill ratio 70% or more, less than 90%)
Wild oat [38]
  G (wild oat) weedkilling efficacy grade: 4 (weed kill ratio 70% or more, less than 90%)

Source: patent publication US9738634B2, “Heterocyclic amide compound and herbicide” (SYNGENTA PARTICIPATIONS AG, priority 2013, dated 2017)
